Measurements taken from patent US20120028887A1, “L[…] HIV-1” (priority 2009, published 2012).
Residues, ends and D or L forms follow the SMILES beside them. No end group written: not given here. *: point of attachment. Palmitoyl = CCCCCCCCCCCCCCCC(=O)*; C16 = C16 lipid

Tests used:
[1] = system: Jurkat E6-1 cells and Jurkat HXBc2 cells expressing HIV-1 HXBc2 Rev and ENV proteins; format: cell-based; conditions: for IC50: read-out: IC50 in cell-cell fusion inhibition assay; for IC50 (nM) In cell-cell fusion assay: Table 4
Description: Jurkat E6-1 cells were from Dr. Arthur Weiss (Weiss A et al. 1984, J. Immunol. 133; 123-8), and Jurkat HXBc2 (4) cells expressing HIV-1 HXBc2 Rev and ENV proteins were from Dr. Joseph Sodroski (Cao, J. et al. 1996, J. Virol. 70; 1340-54). Cells were cultured every 3 to 4 days, and maintained in RPMI-1640 supplemented with the appropriate antibiotics at 37° C. with 5% CO2 in a humidified incubator. For ENV expression, Jurkat HXBc2 (4) cells were transferred to medium without tetracycline three days prior to the experiments. […] Cell-Cell Fusion Inhibition Assay—The protocol utilizing Jurkat E6-1 and Jurkat HXBc2 cells for a cell-cell fusion assay was previously described (Huerta L. et al. 2002, Cytometry, 47; 100-6. In short, Jurkat E6-1 and Jurkat HXBc2 cells were labeled with DiI and DiD lypophilic fluorescent probes, respectively. The two cell populations were co-incubated for 6 h in a ratio of 1:1 in the presence of different concentrations of the inhibitory peptides. Cells that co-incubated without the presence of peptides served as an optimal fusion reference. Unlabeled cells that were handled similarly served as an intrinsic fluorescence control. Cells labeled separately with DiI or DiD were used to compensate for the optimal separation of fluorescent signals. Jurkat HXBc2 cells labeled with DiI were co-incubated with Jurkat HXBc2 cells labeled with DiD for a fusion background that was subtracted from the measurements of the experiment. The following alterations were applied to the original protocol: (i) 5 ul of a 1 mg/ml DiI or DiD solution in dimethylsulfoxide (DMSO) was added to 1 ml of 5×10^6 cells/ml Jurkat E6-1 or Jurkat HXBc2 cells, respectively. (ii) Data from 150,000 events for each sample were collected on FACSort, upgraded to a FACSCalibur cell analyzer (Becton Dickinson), and further analyzed. Fitting of the data points was performed according to the equation derived from Hills' equation:

HIV-1 HXB2 = format: cell-based; conditions: Table 5
Description: For the fitting, we uploaded the X and Y values of the raw data (after subtracting the background) into a nonlinear least squares regression (curve fitter) program that provided the IC50 value (A of the equation), as well as the c value. Virus Infectivity Assay—Fully infectious HIV-1 HXB2 concentrated virus stock was a kind gift of the AIDS Vaccine Program, SAIC. Experiments were done according to a P3 biological safety level. The infectivity of HIV-1 HXB2 was determined using the TZM-bl cell line as a reporter. Cells were added (2×10^4 cells/well) to a 96-well clear-bottomed microtiter plate with 10% serum supplemented Dulbecco's modified eagle medium (DMEM). Plates were incubated at 37° C. for 18-24 hours to allow the cells to adhere. The media was then aspirated from each well and replaced with serum free DMEM containing 40 micrograms/mL DEAE-dextran. […] Luciferase activity was analyzed using the Steady-Glo Luciferase assay kit (Promega, Madison Wis.). […] IC50 Values were calculated from the fitted curve similarly to the cell-cell fusion assay. […] The eight different possible combinations (triple, NBD, DiI, DiD, NBD+DiI, NBD+DiD, DiI+DiD, no label) were defined in the analysis software and the percentage of each one was calculated. The percentage of NBD labeling (peptide) on all cell types in relation to all available labeled cells in the system was calculated. […]

HIV-1LAI = conditions: blocked infection of target cells; cited from earlier work

CCCCCCCCCCCCCCCC(=O)N[C@@H](CO)C(=O)NCC(=O)N[C@H](C(=O)N[C@@H](CC(=O)O)C(=O)N[C@@H](CCC(N)=O)C(=O)N[C@@H](CCC(=O)O)C(=O)N[C@@H](CCC(N)=O)C(=O)N[C@@H](CC(N)=O)C(=O)N[C@@H](CC(N)=O)C(=O)N[C@@H](CC(C)C)C(=O)N[C@H](C(=O)N[C@@H](CCCNC(=N)N)C(=O)N[C@@H](CC(C)C)C(=O)N[C@H](C(=O)N[C@@H](CCC(=O)O)C(=O)N[C@@H](C)C(=O)N[C@@H](CCC(N)=O)C(=O)N[C@H](C(=O)N[C@@H](Cc1c[nH]cn1)C(=O)N[C@@H](CCC(=O)O)C(=O)N[C@@H](CC(C)C)C(=O)N[C@@H](CCC(N)=O)C(=O)N[C@@H](CC(C)C)C(=O)N[C@H](C(=O)N[C@@H](CCC(N)=O)C(=O)N[C@@H](Cc1c[nH]c2ccccc12)C(=O)N[C@@H](CCCCN)C(=O)N[C@H](C(=O)N[C@@H](CCCCN)C(=O)N[C@@H](CCC(N)=O)C(=O)N[C@@H](CC(C)C)C(=O)N[C@@H](CC(C)C)C(=O)N[C@@H](C)C(=O)N[C@@H](CCCNC(=N)N)C(=O)N[C@H](C(=O)N[C@@H](CC(C)C)C(=O)N[C@@H](CCCCN)C(N)=O)[C@@H](C)CC)[C@@H](C)CC)[C@@H](C)O)[C@@H](C)CC)[C@@H](C)CC)[C@@H](C)O)[C@@H](C)CC [C16-N36 MUTe,g] (Palmitoyl-SGIDQEQNNLTRLIEAQIHELQLTQWKIKQLLARILK-NH2)
IC50 [1]: 162 ± 4 nM

CC[C@H](C)[C@H](NC(=O)CNC(=O)[C@@H](N)CO)C(=O)N[C@@H](CC(=O)O)C(=O)N[C@@H](CCC(N)=O)C(=O)N[C@@H](CCC(=O)O)C(=O)N[C@@H](CCC(N)=O)C(=O)N[C@@H](CC(N)=O)C(=O)N[C@@H](CC(N)=O)C(=O)N[C@@H](CC(C)C)C(=O)N[C@H](C(=O)N[C@@H](CCCNC(=N)N)C(=O)N[C@@H](CC(C)C)C(=O)N[C@H](C(=O)N[C@@H](CCC(=O)O)C(=O)N[C@@H](C)C(=O)N[C@@H](CCC(N)=O)C(=O)N[C@H](C(=O)N[C@@H](Cc1c[nH]cn1)C(=O)N[C@@H](CCC(=O)O)C(=O)N[C@@H](CC(C)C)C(=O)N[C@@H](CCC(N)=O)C(=O)N[C@@H](CC(C)C)C(=O)N[C@H](C(=O)N[C@@H](CCC(N)=O)C(=O)N[C@@H](Cc1c[nH]c2ccccc12)C(=O)N[C@@H](CCCCN)C(=O)N[C@H](C(=O)N[C@@H](CCCCN)C(=O)N[C@@H](CCC(N)=O)C(=O)N[C@@H](CC(C)C)C(=O)N[C@@H](CC(C)C)C(=O)N[C@@H](C)C(=O)N[C@@H](CCCNC(=N)N)C(=O)N[C@H](C(=O)N[C@@H](CC(C)C)C(=O)N[C@@H](CCCCN)C(N)=O)[C@@H](C)CC)[C@@H](C)CC)[C@@H](C)O)[C@@H](C)CC)[C@@H](C)CC)[C@@H](C)O [N36 MUTe,g, reference compound] (H-SGIDQEQNNLTRLIEAQIHELQLTQWKIKQLLARILK-NH2; N-terminus assumed)
IC50 [1]: 936 ± 36 nM

CCCCCCCCCCCCCCCC(=O)NCCCC[C@H](NC(=O)[C@H](CC(C)C)NC(=O)[C@@H](NC(=O)[C@H](CCCNC(=N)N)NC(=O)[C@H](C)NC(=O)[C@H](CC(C)C)NC(=O)[C@H](CC(C)C)NC(=O)[C@H](CCC(N)=O)NC(=O)[C@H](CCCCN)NC(=O)[C@@H](NC(=O)[C@H](CCCCN)NC(=O)[C@H](Cc1c[nH]c2ccccc12)NC(=O)[C@H](CCC(N)=O)NC(=O)[C@@H](NC(=O)[C@H](CC(C)C)NC(=O)[C@H](CCC(N)=O)NC(=O)[C@H](CC(C)C)NC(=O)[C@H](CCC(=O)O)NC(=O)[C@H](Cc1c[nH]cn1)NC(=O)[C@@H](NC(=O)[C@H](CCC(N)=O)NC(=O)[C@H](C)NC(=O)[C@H](CCC(=O)O)NC(=O)[C@@H](NC(=O)[C@H](CC(C)C)NC(=O)[C@H](CCCNC(=N)N)NC(=O)[C@@H](NC(=O)[C@H](CC(C)C)NC(=O)[C@H](CC(N)=O)NC(=O)[C@H](CC(N)=O)NC(=O)[C@H](CCC(N)=O)NC(=O)[C@H](CCC(=O)O)NC(=O)[C@H](CCC(N)=O)NC(=O)[C@H](CC(=O)O)NC(=O)[C@@H](NC(=O)CNC(=O)[C@@H](N)CO)[C@@H](C)CC)[C@@H](C)O)[C@@H](C)CC)[C@@H](C)CC)[C@@H](C)O)[C@@H](C)CC)[C@@H](C)CC)C(N)=O [N36 MUTe,g-C16] (H-SGIDQEQNNLTRLIEAQIHELQLTQWKIKQLLARILK(Palmitoyl)-NH2)
IC50 [1]: 8.8 ± 4 nM

CCCCCCCCCCCCCCCC(=O)NCCCC[C@H](NC(=O)[C@H](CCC(N)=O)NC(=O)[C@H](CC(C)C)NC(=O)[C@H](CCC(=O)O)NC(=O)[C@H](Cc1c[nH]cn1)NC(=O)[C@@H](NC(=O)[C@H](CCC(N)=O)NC(=O)[C@H](C)NC(=O)[C@H](CCC(=O)O)NC(=O)[C@@H](NC(=O)[C@H](CC(C)C)NC(=O)[C@H](CCCNC(=N)N)NC(=O)[C@@H](NC(=O)[C@H](CC(C)C)NC(=O)[C@H](CC(N)=O)NC(=O)[C@H](CC(N)=O)NC(=O)[C@H](CCC(N)=O)NC(=O)[C@H](CCC(=O)O)NC(=O)[C@H](CCC(N)=O)NC(=O)[C@H](CC(=O)O)NC(=O)[C@@H](NC(=O)CNC(=O)[C@H](CO)NC(=O)[C@H](CC(C)C)NC(=O)[C@H](CC(C)C)NC(=O)[C@H](CCC(N)=O)NC(=O)[C@@H](N)CCCNC(=N)N)[C@@H](C)CC)[C@@H](C)O)[C@@H](C)CC)[C@@H](C)CC)C(N)=O [Sh-RQLL-Mut e,g-C16] (H-RQLLSGIDQEQNNLTRLIEAQIHELQK(Palmitoyl)-NH2; N-terminus assumed)
IC50 (nM) In cell-cell fusion assay [1]: Not active

C16-HQTLSGIDQEQNNLTRLIEAQIHELQ (C16-HQTLSGIDQEQNNLTRLIEAQIHELQ-NH2) [C16-Sh-Mut e,g]
IC50 (HIV-1 HXB2; read-out: IC50 (nM) In virus-cell fusion assay): 643 ± 137 nM
IC50 (nM) In cell-cell fusion assay [1]: Not active

C16-RQLLSGIDQEQNNLTRLIEAQIHELQ (C16-RQLLSGIDQEQNNLTRLIEAQIHELQ-NH2) [C16-Sh-RQLL-Mut e,g]
IC50 (nM) In cell-cell fusion assay [1]: Not active

HQTLSGIDQEQNNLTRLIEAQIHELQ [Sh-Mut e,g]
IC50 (nM) In virus-cell fusion assay (HIV-1 HXB2): Not active
IC50 (nM) In cell-cell fusion assay [1]: Not active

HQTLSGIDQEQNNLTRLIEAQIHELQ-C16 [Sh-Mut e,g-C16]
IC50 (nM) In cell-cell fusion assay [1]: Not active

RQLLSGIDQEQNNLTRLIEAQIHELQ [Sh-RQLL-Mut e,g]
IC50 (nM) In cell-cell fusion assay [1]: Not active

SGIVQQLNNQLRAEEANQHLEQLSVWGSKQNQARRLK(δ-NH) [N36 MUTa,d, reference compound]
IC50 in cell-cell fusion inhibition assay [1]: inactive
IC50 nM ([1]; cell-cell fusion assay, Table 3, N36 mutated peptides): Not active

enfuvirtide
EC50 against HIV-1LAI (HIV-1LAI): 0.5 ng/mL
